Each structure is given as a SMILES string.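 Values below derive from 48-hour exposures of cells grown in 96-well plates, with endpoints linearly interpolated between the two concentrations bracketing the appropriate inhibition level. GI50 = concentration required for 50% inhibition of growth. TGI marks complete inhibition of growth.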 Some results are limits rather than exact numbers.

Common to all, as to assay: NCI anticancer screen, dose series, 48 h
For experiment [1], the system named is PC-3 prostate.
For experiment [2], the system named is MDA-MB-231 breast.
In experiment [3] the test system is BT-549 breast.
In experiment [4] the test system is MCF7 breast.
Experiment [5] relates to HS 578T breast.
Experiment [6] has as its system T-47D breast.
Experiment [7] concerns DU-145 prostate.

As for `COc1c(B(O)O)cccc1-c1nc2c(F)cc3[nH]ncc3c2c2c1CCCC2`, the GI50 is 1.73 µM in experiment [1]; 0.0423 µM in experiment [2]; 0.116 µM in experiment [3]; 1.31 µM in experiment [4]; 0.0716 µM in experiment [5]; 2.56 µM in experiment [6]. Also, the GI50 in experiment [7] was 2.18 µM. In addition, the TGI in experiment [1] was over 29 µM; in experiment [2], 35.9 µM; in experiment [3] it was 3.02 µM; in experiment [4] it was 13.5 µM; in experiment [5], 20.8 µM; in experiment [6], 22.2 µM. The TGI in experiment [7] came to 26.9 µM.

For the molecule `O=C1/C=C/[C@@H](O)[C@@H]2C[C@@H](O)C[C@H]2/C=C/CCC[C@H](CO)O1`, the GI50 in experiment [1] was 2.5 µM; in experiment [2] it was 1.96 µM; in experiment [3], 3.98 µM; in experiment [4], 1.79 µM; in experiment [5] it was over 100 µM; in experiment [6], 2.49 µM. Further, in experiment [7], the GI50 is 7.75 µM. In addition, the TGI in experiment [1] was over 100 µM; in experiment [2], 4.81 µM; in experiment [3] it was over 100 µM; in experiment [4], 5.88 µM; in experiment [5], over 100 µM; in experiment [6] it was 7.12 µM. This molecule had a TGI in experiment [7] of over 100 µM.

`CCC1CCCCN1C(=S)N/N=C(\C)c1ccccn1` (stereo not drawn): the GI50 in experiment [1] was 0.0195 µM; in experiment [2], 0.0922 µM; in experiment [3], 0.092 µM; in experiment [4] it was under 0.0121 µM; in experiment [5], 1.06 µM; in experiment [6] it was under 0.0146 µM. Further, in experiment [7], the GI50 was 0.292 µM. The TGI in experiment [1] amounted to 2.99 µM; in experiment [2], 3.69 µM; in experiment [3], 2.72 µM; in experiment [4], 4.2 µM; in experiment [5] it was 14.5 µM; in experiment [6], 1.63 µM. Besides, the TGI in experiment [7] is 3.75 µM.

In the case of `O=C1/C(=C/c2ccccc2)CN(CCC(=O)N2C/C(=C\c3ccccc3)C(=O)/C(=C/c3ccccc3)C2)C/C1=C\c1ccccc1`, the GI50 in experiment [1] is 6.02 µM; in experiment [2], 10.7 µM; in experiment [3], 9.91 µM; in experiment [4], 0.182 µM; in experiment [5] it was 10.7 µM; in experiment [6] it was 13.5 µM. Further, the GI50 in experiment [7] was 21.1 µM. Besides, the TGI in experiment [1] is over 69.9 µM; in experiment [2], 56.2 µM; in experiment [3], 36.4 µM; in experiment [4] it was 26.3 µM; in experiment [5], 55.4 µM; in experiment [6] it was 75.3 µM. This molecule also showed a TGI in experiment [7] of 73.9 µM.

With `COc1ccc(-c2nc(N)c3ncn(C4OC(CO)C(O)C4O)c3n2)cc1` (stereo not drawn), the TGI in experiment [1], in experiment [2], in experiment [3], in experiment [4], in experiment [5] and in experiment [6] was over 100 µM in each case. For the same molecule, the TGI in experiment [7] is over 100 µM.

For the molecule `CCC(c1ccc(OC)cc1)C(CC)c1ccc(O)c(CN2CCCC2)c1` (stereo not drawn), the GI50 is 3.38 µM in experiment [1]; 2.49 µM in experiment [2]; 3.27 µM in experiment [3]; 2.74 µM in experiment [4]; 5.33 µM in experiment [5]; 2.1 µM in experiment [6]. For the same molecule, in experiment [7], the GI50 was 5.8 µM. Further, the TGI was found to be 14.3 µM in experiment [1]; 6.03 µM in experiment [2]; 11.5 µM in experiment [3]; 6.47 µM in experiment [4]; 23.8 µM in experiment [5]; 6.4 µM in experiment [6]. For the same molecule, in experiment [7], the TGI amounted to 19.1 µM.

For `O=C1c2cccc3cc([N+](=O)[O-])cc(c23)C(=O)N1CCN1CCCC1`, the GI50 in experiment [1] is 1.58 µM; in experiment [2] it was 1.56 µM; in experiment [3] it was 1.56 µM; in experiment [4], 0.309 µM; in experiment [5], 1.08 µM; in experiment [6] it was 0.302 µM. For the same molecule, the GI50 in experiment [7] was 0.286 µM. Also, the TGI turned out to be 12.5 µM in experiment [1]; 11.1 µM in experiment [2]; 7.55 µM in experiment [3]; 3.83 µM in experiment [4]; 5.36 µM in experiment [5]; 2.28 µM in experiment [6]. The TGI in experiment [7] was 1.24 µM.

Take `O=S(=O)(NCCCNc1cc(-c2cn(-c3ccccc3)nc2-c2cccc(O)c2)ccn1)c1cccc2ccccc12`: the GI50 in experiment [1] was 2.87 µM; in experiment [2], 1.86 µM; in experiment [3], 2.47 µM; in experiment [4] it was 1.96 µM; in experiment [5], 1.42 µM; in experiment [6], 2.14 µM. Moreover, the GI50 in experiment [7] was 4 µM. Moreover, the TGI in experiment [1] was found to be 44.9 µM; in experiment [2], 6.52 µM; in experiment [3] it was 7.58 µM; in experiment [4] it was 5.45 µM; in experiment [5], 8.39 µM; in experiment [6] it was 8.53 µM. Further, the TGI in experiment [7] is over 100 µM.

As for `Cc1cccc2c1O/C(=C\c1ncc([N+](=O)[O-])n1C)C2=O`, the GI50 was 0.445 µM in experiment [1]; 0.295 µM in experiment [2]; 0.275 µM in experiment [3]; 0.243 µM in experiment [4]; 0.375 µM in experiment [5]; 9.23 µM in experiment [6]. The GI50 in experiment [7] was 0.238 µM. Besides, the TGI turned out to be 1.51 µM in experiment [2]; 1.19 µM in experiment [3]; 3.27 µM in experiment [4]; 4.7 µM in experiment [5]; 58.7 µM in experiment [6]; 0.762 µM in experiment [7].

The values are drawn from PubChem BioAssay (NCI).
